Experimental data from patent US20040224979A1, “Treating obesity with selective androgen receptor modulators” (priority 2002, published 2004).

What was measured:
[1] = test system: leptin; assay: Serum leptin levels in intact male rats (ELISA) after SARM treatment by osmotic pump; settings: for Leptin, percent of control / Normalized Leptin, percent of control: control = 100%; for Normalized Leptin: serum leptin normalized to body weight; for Leptin: serum, intact male rats, 500 μg/day s.c. osmotic pump
Description: All doses were delivered by subcutaneous placement of Alzet osmotic pumps.
Seven, 14 and 28 days after pump implantation, animals were exsanguinated under ketamine/xylazine anesthesia. Serum was collected, separated into 10 aliquots and stored at −80° C.
Serum concentrations of testosterone (T), leptin, Insulin and IGF-1 were determined by commercially available ELISA kits.

[2] = Organ weights in intact male rats (tissue-selective anabolic activity); format: in vivo, Sprague-Dawley rats; settings: 500 μg/day
[3] = test system: androgen receptor (AR); assay: In vitro androgen receptor binding affinity
[4] = Whole body DEXA body composition (lean body mass, body fat) in ovariectomized female rats; format: in vivo, Sprague-Dawley rats; settings: 3 mg/day s.c., 90 day time point
Description: Two hundred and thirty (230) female Sprague-Dawley rats (23 weeks of age) were used in these studies.
Animals were randomized (n=10 per group) into each of the treatment groups outlined in Table 2 below. Animals assigned to groups 6 through 23 were ovariectomized on day 0 of the experiment.
Drug administration with Compound VI, bicalutamide (an antiandrogen), and/or DHT commenced on day 0 or 90 with the compound of interest administered via daily subcutaneous injection (0.20 mL) and continued until day 120 or 210 of the study. Drug solutions were prepared daily by dissolving in DMSO and dilution with PEG 300. The percentage of DMSO was the same in all vehicles (17.6%), as determined based on the solubility of the test compounds.
Whole body DEXA images were collected up to 120 or 210 days after ovariectomy, as described in Table 2. Lean body mass (LBM), fat mass (FM) and total body mass (TBM) were determined at each time point.

SMILES: C[C@](O)(COc1ccc(F)cc1)C(=O)Nc1ccc([N+](=O)[O-])c(C(F)(F)F)c1 [Compound VII]
- decrease of serum leptin levels compared with the vehicle control ([1]; 2 w): 36%
- decrease of serum leptin levels compared with the vehicle control ([1]; 4 w): 22%
- Leptin, percent of control ([1]; 1 w): (84%)
- Normalized Leptin, percent of control ([1]; 1 w): (81%)
- Leptin, percent of control ([1]; 2 w): (64%)
- Normalized Leptin, percent of control ([1]; 2 w): (63%)
- Leptin, percent of control ([1]; 4 w): (77%)
- Normalized Leptin, percent of control ([1]; 4 w): (78%)
- Normalized Leptin ([1]; 1 w): 5.80 ± 1.73 (pg/ml)/BW (g)
- Normalized Leptin ([1]; 2 w): 5.47 ± 1.03 (pg/ml)/BW (g)
- Normalized Leptin ([1]; 4 w): 13.82 ± 1.17 (pg/ml)/BW (g)
- Leptin ([1]; 1 w): 1.45 ± 0.47 ng/mL
- Leptin ([1]; 2 w): 1.68 ± 0.29 ng/mL
- Leptin ([1]; 4 w): 4.89 ± 0.61 ng/mL
- changes in organ weight [2]: tissue-selective anabolic activity

SMILES: CC(=O)Nc1ccc(OC[C@](C)(O)C(=O)Nc2ccc([N+](=O)[O-])c(C(F)(F)F)c2)cc1 [Compound VI]
- Leptin, percent of control ([1]; 1 w): (96%)
- Normalized Leptin, percent of control ([1]; 1 w): (93%)
- Leptin, percent of control ([1]; 2 w): (107%)
- Normalized Leptin, percent of control ([1]; 2 w): (104%)
- Leptin, percent of control ([1]; 4 w): (104%)
- Normalized Leptin, percent of control ([1]; 4 w): (105%)
- Normalized Leptin ([1]; 1 w): 6.65 ± 1.07 (pg/ml)/BW (g)
- Normalized Leptin ([1]; 2 w): 8.99 ± 0.99 (pg/ml)/BW (g)
- Normalized Leptin ([1]; 4 w): 18.7 ± 4.2 (pg/ml)/BW (g)
- Leptin ([1]; 1 w): 1.71 ± 0.31 ng/mL
- Leptin ([1]; 2 w): 2.81 ± 0.29 ng/mL
- Leptin ([1]; 4 w): 6.62 ± 1.12 ng/mL
- in vitro androgen receptor (AR) binding affinity [3]: high
- changes in organ weight [2]: tissue-selective anabolic activity
- decrease in body fat as compared to the ovariectomized (OVX) control group [4]: 3.6%
- increase in lean mass as compared to the ovariectomized (OVX) control group [4]: 9%

SMILES: CCC(=O)O[C@H]1CC[C@H]2[C@@H]3CCC4=CC(=O)CC[C@]4(C)[C@H]3CC[C@]12C [TP, testosterone propionate, reference compound]
- Leptin, percent of control ([1]; 1 w): (102%)
- Normalized Leptin, percent of control ([1]; 1 w): (93%)
- Leptin, percent of control ([1]; 2 w): (84%)
- Normalized Leptin, percent of control ([1]; 2 w): (92%)
- Leptin, percent of control ([1]; 4 w): (92%)
- Normalized Leptin, percent of control ([1]; 4 w): (90%)
- Normalized Leptin ([1]; 1 w): 6.67 ± 1.96 (pg/ml)/BW (g)
- Normalized Leptin ([1]; 2 w): 7.04 ± 1.97 (pg/ml)/BW (g)
- Normalized Leptin ([1]; 4 w): 16.0 ± 1.7 (pg/ml)/BW (g)
- Leptin ([1]; 1 w): 1.74 ± 0.53 ng/mL
- Leptin ([1]; 2 w): 2.19 ± 0.67 ng/mL
- Leptin ([1]; 4 w): 5.89 ± 0.77 ng/mL
